In patent US20250270549A1, “MSI2 AS A THERAPEUTIC TARGET FOR THE TREATMENT OF MYOTONIC DYSTROPHY” (UNIVERSITAT DE VALÈNCIA, priority 2021, published 2025):

Key:
MD1 TDMs = experiment: Desmin immunostaining: myogenic fusion index and myotube diameter; assay type: cell-based, human
Procedure: (§1) TDMs were cultured as previously described^1. After 4 days in differentiation medium (MDM), cells were transfected with a combination of two siRNAs (SEQ ID NO: 40 and 43) targeting MSI2 transcripts (final concentration 100 nM) using Lipofectamine RNAiMAX transfection reagent (Invitrogen, Madrid, Spain)) following the manufacturer's recommendations. After 48 h, the medium containing the siRNAs was replaced by fresh MDM. 24 h later, cells were collected. As a control, the same protocol was performed using 100 nM of a siRNA with a scrambled sequence (Cat #4390843 for negative control). Gapmers against MSI2 and agomiR-107 were transfected following the same protocol using two different concentrations, 30 and 150 nM in the case of Gapmers and 100 and 300 nM in the case of agomiR-107. To treat cells with the small molecule Ro-08-2750 (Tocris Cat. No. 2272, Bristol, UK)), cells were cultured as before. Briefly, after 96 h in MDM, the medium was supplemented with Ro-08-2750 at a final concentration of 10 μM (0.8% DMSO) or with the vehicle, DMSO 0.8%, for 48 h. Then cells were collected for further analyses.
(§2) Desmin immunostaining and fusion index and diameter determination were performed as previously described^3. For MSI2 immunodetection, 3.5×10^4 fibroblasts/well were seeded in 24 well plates. After 7 days of differentiation into myotubes, cells were fixed with 4% paraformaldehyde (PFA) for 15 min. After 3 washes with PBS-T (0.1%×-TritonX-100 in PBS 1×) cells were blocked (PBS-T, 1% BSA, 5% normal goat serum) for 1 h and incubated with rabbit anti-MSI2 antibody (1:100, Abcam, EP1305Y, Cambridge, UK) in blocking buffer for 48 h at 4° C. After three washes with PBS-T, cells were incubated for 1 h with goat anti-rabbit-FITC IgG (1:200, Sigma-Aldrich, St. Louis, Missouri) in blocking buffer. Finally, cells were washed thrice with PBS 1× and were counterstained and mounted with VECTASHIELD® mounting medium containing DAPI (Vector Laboratories, London, UK) to detect the nuclei. Images were taken in a confocal microscope LSM800 (Zeiss) at 400× magnification.

miR-7 [1] = experiment: miR-7 quantification by RT-qPCR in MD1 cells; assay type: cell-based, human
Procedure: as §1
(§3) All the procedures were performed as previously described^1.

TGFBR1 = TGFBR1 expression by RT-qPCR in MD1 muscle cells; assay type: cell-based, H. sapiens
Procedure: as §1, §3

LC3 = LC3 immunostaining and LC3 puncta quantification; assay type: cell-based, human; conditions: DM1 myoblasts; 10 μM
Procedure: For LC3B immunodetection, cells were differentiated in MDM for 7 days (3×10^5 cells/well in 24-well plates). After 48 h of gapmer treatment, cells were fixed with 4% PFA in PBS for 15 min at room temperature. After fixation, cells were permeabilized with methanol 100% for 15 min at −20° C. and blocked with blocking buffer (PBS 1×, 0.5% BSA, 1% goat serum) for 1 h at room temperature. Cells were incubated overnight (O/N) with rabbit anti-LC3B (1:200, ab51520; Abcam, Cambridge, UK) diluted in blocking buffer. Then, samples were incubated with goat anti-rabbit IgG (H+L) Alexa Fluor Plus 594 (1:200; Invitrogen, Carlsbad, CA, USA) for 2 h. Between antibodies, cells were washed three times with PBS 1×. Finally, cells were washed three times with PBS and mounted in Vectashield (Vector Laboratories, London, UK) with […] DAPI.
Image analyses of LC3-stained myotubes were performed using the Ifdotmeter software following the authors' recommendations (see Rodríguez-Arribas, M., et al. (2016). IFDOTMETER: A New Software Application for Automated Immunofluorescence Analysis. J. Lab. Autom. 21, 246-259). Briefly, the quantification of the number of LC3 dots or LC3 puncta was performed with 15-20 images per condition. Total LC3 dots per image were normalized relative to the total area corresponding to all myotubes observed in each image. Myotube area was measured by using ImageJ software. Data were expressed as the number of LC3 dots/mm2.

DM1-14 and DM1-16 lines = experiment: Fusion capacity of primary DM1 myoblasts (Desmin immunostaining); assay type: cell-based, human; conditions: primary myoblasts cultured for 7 days; 10 μM
Procedure: To treat primary myoblasts, CNT-10, DM1-14, and DM1-16 with the small molecule Ro 08-2750 cells were cultured as before. […] Information about biopsy donors is compiled in Table 1.
as §2

immortalized myoblasts = experiment: Fusion index of immortalized DM1 myoblasts (anti-Desmin immunofluorescence); assay type: cell-based, human; conditions: 10 μM for the last 48 h
Procedure: Immortalized myoblasts were cultured in a growth medium consisting of a mix of 199:DMEM (1:4 ratio; Life Technologies) supplemented with 20% FBS (Life Technologies), 50 μg/ml gentamycin (Life technologies), 25 μg/ml fetuin, 0.5 ng/ml bFGF, 5 ng/ml EGF and 0.2 μg/ml dexamethasone (Sigma-Aldrich). Myogenic differentiation is induced by switching confluent cell cultures to DMEM supplemented with 5 μg/ml insulin for myoblasts. […] In the case of fusion index determinations at 7, 10, and 14 days, the compound was added for the last 48 h.
as §2

miR-7 [2] = experiment: miR-7 quantification by RT-qPCR in MD1 cells; assay type: cell-based, human; remark: listed apart in the source

Cc1cc2nc3c(=O)[nH]c(=O)nc-3n(C)c2cc1C=O [Ro 08-2750, 2,3,4,10-Tetrahydro-7,10-dimethyl-2,4-dioxobenzo[g]pteridine-8-carboxaldehyde]
diameter of the cells (MD1 TDMs; DM1 TDMs, Ro 08-2750 10 μM): improved significantly | fusion index (MD1 TDMs; MD1 TDMs, Ro-08-2750 (10 μM) or agomiR-107): significantly improved | miR-7 levels (miR-7 [1]; MD1 TDMs, Ro-08-2750 at 10 μM or the agomiR): significant derepression | FC miR-7 expression respect to MD1, Low concentration (miR-7 [1]; MD1 cells, ASO 30 nM, Ro 08-2750 10 μM, siRNA 100 nM, * significant): 2.52 fold | expression of TGFBR1 (TGFBR1; 10 μM, DM1-14): rescued | TGFBR1 levels (TGFBR1; MD1 TDMs, Ro-08-2750 10 μM / agomiR-107): sufficient to reduce | autophagic markers (LC3 puncta, ATG4A, ATG7) (LC3): reverse autophagic markers to a non-DM1 state | impaired fusion capacity phenotype (DM1-14 and DM1-16 lines): dramatically reversed | fusion index improved compared to DM1 cells treated with vehicle only (immortalized myoblasts; day 7 of differentiation): 160% | fusion index improved compared to DM1 cells treated with vehicle only (immortalized myoblasts; day 10 of differentiation): 77% | fusion index improved compared to DM1 cells treated with vehicle only (immortalized myoblasts; day 14 of differentiation): 95% | expression of miR-7 (miR-7 [2]; 10 μM, all cell lines (immortalized DM1 myoblasts, DM1-14, DM1-16)): rescued | miR-7 biogenesis (miR-7 [2]; DM1 TDMs, 3 μM): significantly de-repress
